{"source": "patent US9034299B2", "about": "“ATF4 inhibitors and their use for neural protection, repair, regeneration, and plasticity” (priority 2007, dated 2015)", "assay_type_in_all_cases": "cell-based, mouse", "key": {"[1]": {"system": "embryonic cortical neurons", "assay": "Cell viability of primary cortical neurons (MTT assay, live/dead assay)", "experimental": "(§1) FIG. 1. Amino acid depletion and thapsigargin treatment induce ATF4 and protect embryonic cortical neurons from oxidative stress-induced cell death. (A) Cortical neuronal cultures (1 d in vitro) were treated with a vehicle control (shown as C), 10 mM of the glutamate analogue HCA, 1 μg/ml arginase, 1 μM thapsigargin, 1 μg/ml arginase and 10 mM HCA, or 10 mM HCA and 1 μM thapsigargin. 24 h later, cell viability was determined using the MTT assay. The graph depicts mean (compared with control)±SD calculated from three separate experiments for each group (n=25). *, P<0.05 from HCA-treated cultures by the Kruskal-Wallis test followed by Dunn's multiple comparisons test. (B) Live/dead assay of cortical neuronal cultures (2 d in vitro). Live cells were detected by uptake and trapping of calcein-AM (green fluorescence). […] Bar, 50 μm. […] Cells were harvested at the indicated time points, and nuclear extracts were separated using gel electrophoresis and immunodetected using an antibody against ATF4. YY1 was monitored as a loading control. The immunoblot is a representative example of three experiments.\n(§2) FIG. 5. ATF4 has a negative impact on the neuronal glutathione metabolism. (A) ATF4^+/+ (♦) and ATF4^−/− (▴) cortical neurons were treated with 10 mM HCA. At the indicated time points, cells were trypsinized, washed, and pelleted. Reduced glutathione (GSH) was determined in the cell pellets using HPLC electrochemical detection. Data are from three separate cultures, and each data point was measured in duplicate. Graph depicts mean±SD. (B) Schematic overview over cysteine uptake and glutathione synthesis and their inhibition. (C) ATF4^+/+ and ATF4^−/− cortical neurons were treated with a vehicle control (shown as C) or 200 μM BSO. 24 h later, cell viability was determined using the MTT assay. The graph depicts mean (compared with control)±SD calculated from five separate experiments for each group (n=46 ATF4^+/+ and 58 ATF4^−/−). *, P<0.05 from untreated ATF4^+/+ cultures by the Kruskal-Wallis test followed by Dunn's multiple comparisons test. The difference between treated and untreated ATF4^−/− neurons was not significant (n.s.). (D) Live/dead assay displaying untreated and BSO-treated ATF4^+/+ and ATF4^−/− neurons. Bar, 50 μm. […] Cytoplasmic extracts were separated using gel electrophoresis and immunodetected using an antibody against γGCS. Total eIF2α was monitored as a loading control. (F) ATF4^+/+ (♦) and ATF4^−/− (▪) cortical neurons were treated with 200 μM BSO. At the indicated time points, cells were trypsinized, washed, and pelleted. GSH was determined in the cell pellets using HPLC electrochemical detection. Data are from three separate cultures, and each data point was measured in duplicate. Graph depicts mean±SD. (G) ATF4^+/+ cortical neurons were infected with GFP (♦), ATF4WT (▪), and ATF4ΔRK (▴) adenoviruses at an MOI of 100. At the indicated time points after infection, cells were trypsinized, washed, and pelleted. GSH was determined in the cell pellets using HPLC electrochemical detection. The graph depicts mean±SD calculated from three separate experiments for each group, and each data point was measured in duplicate. The value obtained from noninfected neurons was arbitrarily defined as 100%. […] The graph depicts mean (compared with control) ±SD calculated from five separate experiments for each group (n=29). *, P<0.05 from untreated neurons overexpressing ATF4WT by the Kruskal-Wallis test followed by Dunn's multiple comparisons test. […]"}, "[2]": {"system": "reduced glutathione (GSH) in cortical neurons", "assay": "Reduced glutathione (GSH) in cortical neurons by HPLC electrochemical detection", "conditions": "10 mM HCA or 200 μM BSO, time course; for glutathione concentration, ATF4+/+ neurons: ATF4+/+ cortical neurons; for glutathione concentration, ATF4−/− neurons: ATF4−/− cortical neurons", "experimental": "as §2, with “BSO. […]” for “BSO. At the indicated time points, cells were trypsinized, washed, and pelleted.”, “duplicate. […]” for “duplicate. Graph depicts mean±SD. (G) ATF4^+/+ cortical neurons were infected with GFP (♦), ATF4WT (▪), and ATF4ΔRK (▴) adenoviruses at an MOI of 100. At the indicated time points after infection, cells were trypsinized, washed, and pelleted.”, “duplicate.” for “duplicate. The value obtained from noninfected neurons was arbitrarily defined as 100%.”\nConcentrations of reduced glutathione were measured using HPLC (PerkinElmer) equipped with an eight-channel coulometric array detector (ESA, Inc.). […] Glutathione concentrations of supernatant fractions were determined by injecting 5-μl aliquots onto an Ultrasphere 5 u, 4.6×250 mm, C18 column (Beckman Coulter), and eluting with a mobile phase of 50 mM NaH2PO4, 0.05 mM octane sulfonic acid, 1.5% acetonitrile (pH 2.62) at a flow rate of 1 ml/min. Peak areas were analyzed using software from ESA, Inc. Intracellular generation of ROS was determined by DCF. Cortical neurons were seeded in 96-well fluorescence plates. […] Cells were washed with HBSS and read on a plate reader (Fluorometer; MDS Analytical Technologies) at 485-nm excitation and 530-nm emission wavelengths."}, "TRB3 mRNA": {"system": "TRB3 mRNA", "assay": "Real-time PCR of TRB3 mRNA expression in cortical neurons", "conditions": "10 mM HCA; ATF4-dependent (ATF4+/+ versus ATF4−/− neurons)"}, "ATF4": {"system": "ATF4", "assay": "ATF4 immunoblot of nuclear extracts from cultured cortical neurons", "conditions": "10 mM HCA, 1 μg/ml arginase or 1 μM thapsigargin, versus vehicle control", "experimental": "as §1"}}}
{"smiles": "COc1ccc(O)c(C(C)(C)C)c1", "note": "[BHA, butylated hydroxyanisol]", "values": [{"measurement": "neuronal viability in neurons overexpressing ATF4WT", "setting": "[1]; ATF4+/+ cortical neurons infected with ATF4WT adenovirus, MOI 100, 10 μM BHA", "value": "significantly increased neuronal viability"}, {"measurement": "protection against additional HCA toxicity in neurons overexpressing ATF4WT", "setting": "[1]; ATF4WT adenovirus, MOI 100, 10 μM BHA plus 10 mM HCA", "value": "protected against the additional toxic effect of HCA treatment"}]}
{"smiles": "CCCCS(=N)(=O)CCC(N)C(=O)O", "note": "(stereo not drawn) [BSO, buthionine sulfoximine]", "values": [{"measurement": "glutathione concentration, ATF4+/+ neurons", "setting": "[2]", "value": "decline in the concentration of glutathione"}, {"measurement": "glutathione concentration, ATF4−/− neurons", "setting": "[2]", "value": "distinctly slower reduction of glutathione"}, {"measurement": "cell viability, ATF4+/+ neurons", "setting": "[1]; 200 μM BSO, 24 h, ATF4+/+ cortical neurons", "value": "resulted in cell death"}, {"measurement": "cell viability, ATF4−/− neurons", "setting": "[1]; 200 μM BSO, 24 h, ATF4−/− cortical neurons", "value": "essentially resistant"}]}
{"smiles": "NC(CCS(=O)(=O)O)C(=O)O", "note": "(stereo not drawn) [HCA, homocysteate]", "values": [{"measurement": "glutathione concentration, ATF4+/+ neurons", "setting": "[2]", "value": "progressive loss of glutathione"}, {"measurement": "glutathione concentration, ATF4−/− neurons", "setting": "[2]", "value": "markedly slower decline in glutathione concentration"}, {"measurement": "TRB3 mRNA expression", "setting": "TRB3 mRNA", "value": "induced"}, {"measurement": "ATF4 protein expression/accumulation", "setting": "ATF4", "value": "increases the expression of ATF4"}]}
{"smiles": "C/C=C(/C)C(=O)O[C@H]1C(C)=C2[C@H]([C@@H]1OC(=O)CCCCCCC)[C@@](C)(OC(C)=O)C[C@H](OC(=O)CCC)[C@@]1(O)[C@H]2OC(=O)[C@@]1(C)O", "note": "[thapsigargin]", "values": [{"measurement": "protection from oxidative stress-induced neuronal cell death", "setting": "[1]; 10 mM HCA, 24 h, 1 μg/ml arginase or 1 μM thapsigargin, MTT and live/dead assay", "value": "nearly complete protection from neuronal cell death"}, {"measurement": "ATF4 protein expression/accumulation", "setting": "ATF4", "value": "accumulation of ATF4 protein"}]}
